One series has as its target T1, Cytochrome P450 1A2 (Homo sapiens, UniProt P05177). Note: in other assays of this panel Not Active means under 50% inhibition at 10 µM.
T1 sequence (P05177 whole entry): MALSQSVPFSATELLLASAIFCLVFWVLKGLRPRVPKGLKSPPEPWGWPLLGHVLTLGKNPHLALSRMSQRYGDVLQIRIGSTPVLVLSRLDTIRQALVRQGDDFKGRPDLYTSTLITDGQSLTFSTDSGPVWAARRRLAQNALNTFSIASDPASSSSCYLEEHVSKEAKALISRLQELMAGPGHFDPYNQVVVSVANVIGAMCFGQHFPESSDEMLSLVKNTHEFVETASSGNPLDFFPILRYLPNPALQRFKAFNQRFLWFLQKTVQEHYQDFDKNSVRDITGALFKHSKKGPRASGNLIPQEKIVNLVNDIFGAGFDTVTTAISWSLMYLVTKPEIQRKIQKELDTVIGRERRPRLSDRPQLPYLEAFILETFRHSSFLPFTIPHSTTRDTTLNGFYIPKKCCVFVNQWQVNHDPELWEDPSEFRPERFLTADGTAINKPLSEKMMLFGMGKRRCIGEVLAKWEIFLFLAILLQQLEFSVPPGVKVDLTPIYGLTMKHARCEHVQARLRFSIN
As to conditions: bti-tn-5b1-4.

A further series has as its target Cytochrome P450 2C19 (Homo sapiens, UniProt P33261). As to conditions: bti-tn-5b1-4. Note: in other assays of this panel Not Active means under 50% inhibition at 10 µM.
Another series deals with T2, Interstitial collagenase (Homo sapiens, UniProt P03956).
T2 sequence (P03956 whole entry): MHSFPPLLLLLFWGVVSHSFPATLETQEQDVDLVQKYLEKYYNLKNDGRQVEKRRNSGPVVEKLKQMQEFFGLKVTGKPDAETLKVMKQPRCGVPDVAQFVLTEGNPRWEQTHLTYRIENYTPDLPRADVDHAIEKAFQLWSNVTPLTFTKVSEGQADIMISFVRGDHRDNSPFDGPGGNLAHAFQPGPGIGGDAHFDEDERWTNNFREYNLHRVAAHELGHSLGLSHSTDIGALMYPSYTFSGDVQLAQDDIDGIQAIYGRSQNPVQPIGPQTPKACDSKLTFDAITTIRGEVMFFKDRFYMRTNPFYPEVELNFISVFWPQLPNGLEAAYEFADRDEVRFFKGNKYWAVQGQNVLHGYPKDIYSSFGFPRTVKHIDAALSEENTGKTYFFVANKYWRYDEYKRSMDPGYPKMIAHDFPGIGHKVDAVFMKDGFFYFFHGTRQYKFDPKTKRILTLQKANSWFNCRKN
As to the kind of experiment: biochemical. The series is classed as tissue-based, Rheumatoid synovial fibroblasts.

A further series addresses Nitric oxide synthase 1 (Rattus norvegicus, UniProt P29476). The class given is tissue-based, Cerebellum.
Series [1] is described as follows: DRUGMATRIX: Sigma2 radioligand binding (ligand: [3H] Ifenprodil). The series is classed as cell membranes, Rattus norvegicus, Wistar, Brain, Membrane. As to conditions: Not Active = under 50% inhibition at 10 µM.
The next series has as its target T3, Progesterone receptor (Bos taurus, UniProt Q690N0).
T3 sequence (Q690N0 whole entry): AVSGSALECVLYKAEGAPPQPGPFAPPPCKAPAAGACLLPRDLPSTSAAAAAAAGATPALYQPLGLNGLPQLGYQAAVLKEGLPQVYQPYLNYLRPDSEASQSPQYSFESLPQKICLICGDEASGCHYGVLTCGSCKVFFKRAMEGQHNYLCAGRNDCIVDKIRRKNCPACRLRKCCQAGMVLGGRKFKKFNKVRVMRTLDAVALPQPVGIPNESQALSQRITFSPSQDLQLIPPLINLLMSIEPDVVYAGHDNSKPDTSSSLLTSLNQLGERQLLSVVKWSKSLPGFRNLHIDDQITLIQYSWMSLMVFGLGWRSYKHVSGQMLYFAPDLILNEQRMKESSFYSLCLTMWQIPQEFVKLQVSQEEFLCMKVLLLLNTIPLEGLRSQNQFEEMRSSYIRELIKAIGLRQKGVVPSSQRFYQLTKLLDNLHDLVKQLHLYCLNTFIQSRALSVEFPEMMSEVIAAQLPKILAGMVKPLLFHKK
As to the kind of experiment: DRUGMATRIX: Progesterone radioligand binding (ligand: [3H] R-5020). The class given is tissue-based, Uterus. As to conditions: Not Active = under 50% inhibition at 10 µM; for Ki: read-out: Ki.

Sequence of Cytochrome P450 2C19 (P33261 whole entry): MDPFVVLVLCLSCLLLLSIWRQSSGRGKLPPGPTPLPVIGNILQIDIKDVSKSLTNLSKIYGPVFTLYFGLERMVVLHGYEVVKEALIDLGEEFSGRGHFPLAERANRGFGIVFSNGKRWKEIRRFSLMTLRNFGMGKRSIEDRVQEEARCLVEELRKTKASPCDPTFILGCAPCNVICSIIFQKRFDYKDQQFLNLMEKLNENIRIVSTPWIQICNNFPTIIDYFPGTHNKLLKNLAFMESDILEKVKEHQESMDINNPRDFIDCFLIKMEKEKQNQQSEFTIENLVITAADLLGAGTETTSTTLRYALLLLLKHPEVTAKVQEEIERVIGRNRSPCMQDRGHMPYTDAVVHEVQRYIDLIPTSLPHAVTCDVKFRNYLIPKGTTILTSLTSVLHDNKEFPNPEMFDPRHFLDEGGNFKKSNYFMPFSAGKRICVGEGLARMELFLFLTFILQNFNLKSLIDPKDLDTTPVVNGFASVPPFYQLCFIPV
Sequence of Nitric oxide synthase 1 (P29476 whole entry): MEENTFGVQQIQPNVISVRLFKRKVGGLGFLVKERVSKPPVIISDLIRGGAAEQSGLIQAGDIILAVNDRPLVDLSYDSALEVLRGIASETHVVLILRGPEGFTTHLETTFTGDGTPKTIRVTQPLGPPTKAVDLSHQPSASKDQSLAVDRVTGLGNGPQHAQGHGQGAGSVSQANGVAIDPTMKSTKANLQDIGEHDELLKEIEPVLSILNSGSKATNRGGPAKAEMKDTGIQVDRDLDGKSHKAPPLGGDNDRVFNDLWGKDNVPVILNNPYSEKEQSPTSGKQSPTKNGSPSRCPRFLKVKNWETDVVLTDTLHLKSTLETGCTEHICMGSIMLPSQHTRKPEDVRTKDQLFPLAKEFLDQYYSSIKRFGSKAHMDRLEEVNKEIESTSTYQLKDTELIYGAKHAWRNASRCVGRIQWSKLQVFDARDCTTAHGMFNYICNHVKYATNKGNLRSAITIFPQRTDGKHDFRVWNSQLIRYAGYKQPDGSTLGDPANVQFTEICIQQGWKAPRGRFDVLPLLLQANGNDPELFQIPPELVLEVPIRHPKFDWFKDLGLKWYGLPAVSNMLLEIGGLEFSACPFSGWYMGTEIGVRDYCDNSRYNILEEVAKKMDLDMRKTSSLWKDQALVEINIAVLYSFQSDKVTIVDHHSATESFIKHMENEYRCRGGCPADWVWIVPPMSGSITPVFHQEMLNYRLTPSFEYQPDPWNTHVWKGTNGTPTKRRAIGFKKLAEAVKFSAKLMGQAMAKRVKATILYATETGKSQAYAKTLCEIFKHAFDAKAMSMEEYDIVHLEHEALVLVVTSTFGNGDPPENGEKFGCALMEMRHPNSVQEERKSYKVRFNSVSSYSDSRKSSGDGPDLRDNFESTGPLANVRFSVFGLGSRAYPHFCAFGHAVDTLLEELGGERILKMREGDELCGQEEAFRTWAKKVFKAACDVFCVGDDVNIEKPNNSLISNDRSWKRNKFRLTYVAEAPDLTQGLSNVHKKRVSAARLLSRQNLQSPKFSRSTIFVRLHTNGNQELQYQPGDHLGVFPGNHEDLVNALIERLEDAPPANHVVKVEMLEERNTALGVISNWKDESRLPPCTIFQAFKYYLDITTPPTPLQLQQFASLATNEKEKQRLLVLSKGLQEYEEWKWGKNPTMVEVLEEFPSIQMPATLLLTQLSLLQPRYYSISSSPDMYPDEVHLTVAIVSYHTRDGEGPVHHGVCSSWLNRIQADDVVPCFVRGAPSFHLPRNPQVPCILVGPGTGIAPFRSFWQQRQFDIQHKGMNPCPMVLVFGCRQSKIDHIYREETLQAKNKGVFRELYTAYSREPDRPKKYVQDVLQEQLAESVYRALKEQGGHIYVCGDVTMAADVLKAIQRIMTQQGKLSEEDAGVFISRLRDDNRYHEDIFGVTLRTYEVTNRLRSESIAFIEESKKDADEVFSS

Take `CC1Cc2ccccc2N1NC(=O)c1ccc(Cl)c(S(N)(=O)=O)c1` (centres undefined) [INDAPAMIDE]: the IC50 entry (at Cytochrome P450 1A2; against Cytochrome P450 2C19; at Interstitial collagenase; against Nitric oxide synthase 1; in series [1]; at Progesterone receptor) was “Not Active” throughout. Besides, the Ki entry (at Cytochrome P450 1A2; on Cytochrome P450 2C19; in series [1]) was “Not Active” each time.
Regarding `CC(C)C(Br)C(=O)NC(N)=O` (centres undefined) [BROMISOVALUM], the IC50 entry (against Cytochrome P450 1A2; at Cytochrome P450 2C19; against Interstitial collagenase; against Nitric oxide synthase 1; in series [1]; at Progesterone receptor) was “Not Active” each time. The Ki entry (at Cytochrome P450 1A2; on Cytochrome P450 2C19; in series [1]) was “Not Active” throughout.
`CCC(C)n1ncn(-c2ccc(N3CCN(c4ccc(OCC5COC(Cn6cncn6)(c6ccc(Cl)cc6Cl)O5)cc4)CC3)cc2)c1=O` (centres undefined) [ITRACONAZOLE]: the IC50 entry (at Cytochrome P450 1A2; on Cytochrome P450 2C19; on Interstitial collagenase; against Nitric oxide synthase 1; in series [1]; at Progesterone receptor) was “Not Active” each time. The Ki result (at Cytochrome P450 1A2; on Cytochrome P450 2C19; in series [1]) was “Not Active” throughout.
On to `CC(C)(C)NCC(O)c1cc(Cl)c(N)c(Cl)c1` (centres undefined) [CLENBUTEROL], for which the IC50 entry (on Cytochrome P450 1A2; against Cytochrome P450 2C19; at Interstitial collagenase; at Nitric oxide synthase 1; in series [1]; at Progesterone receptor) was “Not Active” in each case. Besides, the Ki result (at Cytochrome P450 1A2; on Cytochrome P450 2C19; in series [1]) was “Not Active” in each case.
As for `C[C@](N)(Cc1ccc(O)c(O)c1)C(=O)O` [METHYLDOPA], the IC50 result (at Cytochrome P450 1A2; against Cytochrome P450 2C19; on Interstitial collagenase; against Nitric oxide synthase 1; in series [1]; on Progesterone receptor) was “Not Active” in each case. Further, the Ki entry (on Cytochrome P450 1A2; at Cytochrome P450 2C19; in series [1]) was “Not Active” throughout.
`C[C@]12CC[C@@H]3c4ccc(O)cc4CC[C@H]3[C@@H]1CCC2=O` [ESTRONE]: the IC50 result against Interstitial collagenase is “Not Active”; on Nitric oxide synthase 1 it was “Not Active”; in series [1] it was “Not Active”; on Progesterone receptor (read-out: IC50), 16.1 µM. The Ki result in series [1] was “Not Active”; on Progesterone receptor it was 2.1 µM.
With `C[C@H]1c2cccc(O)c2C(=O)C2=C(O)[C@]3(O)C(=O)C(C(N)=O)=C(O)[C@@H](N(C)C)[C@@H]3[C@@H](O)[C@@H]21.O` [DOXYCYCLINE], the IC50 entry (against Cytochrome P450 1A2; against Cytochrome P450 2C19; at Interstitial collagenase; at Nitric oxide synthase 1; in series [1]; at Progesterone receptor) was “Not Active” in each case. Also, the Ki result (on Cytochrome P450 1A2; on Cytochrome P450 2C19; in series [1]) was “Not Active” in each case.
On to `Sc1ncnc2nc[nH]c12` [MERCAPTOPURINE ANHYDROUS], for which the concentration for half-maximal inhibition (IC50) result (on Cytochrome P450 1A2; at Cytochrome P450 2C19; against Interstitial collagenase; on Nitric oxide synthase 1; in series [1]; at Progesterone receptor) was “Not Active” in each case. The Ki entry (at Cytochrome P450 1A2; on Cytochrome P450 2C19; in series [1]) was “Not Active” each time.
For the compound `O=c1oc2ccccc2c(O)c1Cc1c(O)c2ccccc2oc1=O` [DICUMAROL], the IC50 entry (against Cytochrome P450 1A2; at Cytochrome P450 2C19; on Interstitial collagenase; on Nitric oxide synthase 1; in series [1]; on Progesterone receptor) was “Not Active” in each case. Moreover, the Ki entry (at Cytochrome P450 1A2; on Cytochrome P450 2C19; in series [1]) was “Not Active” in each case.
Turning to `CC1(C)O[C@@H]2C[C@H]3[C@@H]4CCC5=CC(=O)CC[C@]5(C)[C@@]4(F)[C@@H](O)C[C@]3(C)[C@]2(C(=O)CCl)O1` [HALCINONIDE], the IC50 entry was “Not Active” against Cytochrome P450 1A2; “Not Active” at Cytochrome P450 2C19; “Not Active” at Interstitial collagenase; “Not Active” against Nitric oxide synthase 1; “Not Active” in series [1]; 0.00093 µM on Progesterone receptor (read-out: IC50). Further, the Ki entry on Cytochrome P450 1A2 was “Not Active”; on Cytochrome P450 2C19, “Not Active”; in series [1], “Not Active”; at Progesterone receptor, 0.000121 µM.
On to `CC(C)C(=O)Nc1ccc([N+](=O)[O-])c(C(F)(F)F)c1` [FLUTAMIDE], for which the half-maximal inhibitory concentration (IC50) entry (on Cytochrome P450 1A2; on Cytochrome P450 2C19; at Interstitial collagenase; at Nitric oxide synthase 1; in series [1]; on Progesterone receptor) was “Not Active” each time. Further, the inhibitory constant (Ki) entry (at Cytochrome P450 1A2; at Cytochrome P450 2C19; in series [1]) was “Not Active” in each case.
With `O=C(O)CCCc1ccc(N(CCCl)CCCl)cc1` [CHLORAMBUCIL], the IC50 result (against Cytochrome P450 1A2; on Cytochrome P450 2C19; at Interstitial collagenase; on Nitric oxide synthase 1; in series [1]; at Progesterone receptor) was “Not Active” throughout. In addition, the Ki entry (on Cytochrome P450 1A2; on Cytochrome P450 2C19; in series [1]) was “Not Active” throughout.
For the compound `CCCC1O[C@@H]2C[C@H]3[C@@H]4CCC5=CC(=O)C=C[C@]5(C)[C@H]4[C@@H](O)C[C@]3(C)[C@]2(C(=O)CO)O1` (some centres undefined) [BUDESONIDE], the IC50 entry against Cytochrome P450 1A2 is “Not Active”; on Cytochrome P450 2C19, “Not Active”; against Interstitial collagenase, “Not Active”; on Nitric oxide synthase 1, “Not Active”; in series [1], “Not Active”; on Progesterone receptor (read-out: IC50) it was 0.21 µM. Also, the Ki result is “Not Active” on Cytochrome P450 1A2, “Not Active” on Cytochrome P450 2C19, “Not Active” in series [1] and 0.027 µM at Progesterone receptor.
Regarding `CC1CC(OC(=O)C(O)c2ccccc2)CC(C)(C)C1` (centres undefined) [CYCLANDELATE], the IC50 entry (at Cytochrome P450 1A2; at Cytochrome P450 2C19; against Interstitial collagenase; at Nitric oxide synthase 1; in series [1]; on Progesterone receptor) was “Not Active” each time. Also, the Ki result (at Cytochrome P450 1A2; on Cytochrome P450 2C19; in series [1]) was “Not Active” in each case.
Take `C[C@]12CCC(=O)C=C1CC[C@@H]1[C@@H]2CC[C@@]2(C)[C@H]1CC[C@]2(C)O` [METHYLTESTOSTERONE]: the IC50 entry at Cytochrome P450 1A2 is “Not Active”; against Cytochrome P450 2C19 it was “Not Active”; on Interstitial collagenase it was “Not Active”; at Nitric oxide synthase 1, “Not Active”; in series [1] it was “Not Active”; at Progesterone receptor (read-out: IC50), 0.251 µM. For the same compound, the Ki entry was “Not Active” at Cytochrome P450 1A2, “Not Active” at Cytochrome P450 2C19, “Not Active” in series [1] and 0.033 µM on Progesterone receptor.
For `CN(C)CCCN1c2ccccc2Sc2ccccc21` [PROMAZINE], the IC50 entry against Interstitial collagenase is “Not Active”; against Nitric oxide synthase 1 it was “Not Active”; in series [1] (read-out: IC50) it was 2.54 µM; on Progesterone receptor it was “Not Active”. Moreover, the Ki in series [1] (read-out: Ki) was found to be 1.56 µM.
On to `CNCCCN1c2ccccc2CCc2ccccc21` [DESIPRAMINE], for which the IC50 entry (at Cytochrome P450 1A2; at Cytochrome P450 2C19; on Interstitial collagenase; against Nitric oxide synthase 1; in series [1]; on Progesterone receptor) was “Not Active” each time. Besides, the Ki entry (at Cytochrome P450 1A2; on Cytochrome P450 2C19; in series [1]) was “Not Active” in each case.

Broadly, the IC50 is the midpoint of a concentration-inhibition curve. A word on the Ki: it is the equilibrium dissociation constant of an inhibitor or competing ligand from its target.

These data come from ChEMBL document CHEMBL1909046, “DrugMatrix in vitro pharmacology data”.
